pIC50, pKi: −log10 of the molar value. Activity calls are given as the source filed them. The rule behind the calls is not given here.

The subject of experiment [1] is Bacillus cereus. The experiment is described as follows: Inhibition of Bacillus cereus sphingomyelinase expressed in Bacillus subtilis ISW1214 assessed as sphingomyeline liposome degradation at 20 to 100 uM after 30 mins.
A short description of experiment [2]: Competitive inhibition of Bacillus cereus sphingomyelinase expressed in Bacillus subtilis ISW1214 after 30 mins by Lineweaver-Burke plot analysis.
Experiment [3] relates to Bacillus cereus. The experiment is described as follows: Inhibition of Bacillus cereus sphingomyelinase expressed in Bacillus subtilis ISW1214 assessed as sphingomyeline liposome degradation after 30 mins.
A short description of experiment [4]: Inhibition of Bacillus cereus sphingomyelinase expressed in Bacillus subtilis ISW1214 assessed as [14C]sphingomyeline hydrolysis after 30 mins by liquid scintillation counting.

Take `CCCCCCCCCCCCC/C=C/[C@@H](OCc1cccc(-c2ccccn2)n1)[C@H](CO)NC(=O)CCCCC`: in experiment [1], the inhibition result is “inactive”. Take `CCCCCCCCCCCCC/C=C/[C@@H](O)[C@H](COCc1cccc(-c2ccccn2)n1)NC(=O)CCCCC`: the pKi (in general, the negative decadic logarithm of the Ki, by convention in mol/L) in experiment [2] was 5.28. Moreover, in experiment [3], the inhibition entry is “Dose-dependent effect”. The pIC50 (commonly the negative decadic logarithm of the IC50, by convention in mol/L) in experiment [4] is 5.92. As to `c1ccc(-c2ccccn2)nc1`, in experiment [1], the inhibition result is “inactive”.
